Laboratory results taken from patent publication US20230241257A1, “BIOTIN-MODIFIED DIMER AND USE THEREOF” (THE UNIVERSITY OF TOKYO, priority 2020, published 2023).

How the values were obtained:
[1] = system: human stomach cancer cells (MKN-45); test: Experiment 8: therapeutic effects and toxicity of Cupid-scFv antibody (24 h before)+^211At-psyche-BR in MKN-45 cancer-bearing mouse models; assay type: in vivo, mice (BALB/cSlc nu/nu); details: for general states and body weight: Day 5, urgent euthanasia
Method: The present experiment used human stomach cancer cells (MKN-45) expressing carcinoembryonic antigen (CEA). 9-week-old male immunodeficient mice (BALB/cSlc nu/nu) were used. MKN-45 cells (5×10^6/0.1 ml) were transplanted into the mice's subcutis on the right shoulder dorsal side to produce cancer-bearing mouse models. At the time point in which the tumor volume became a predetermined size (on Day 8 after the transplantation), the mice were divided into seven groups, which were for use in the evaluation of the therapeutic effects, and a biodistribution group (6 hours) of cancer-bearing mouse models having this tumor size. The Cupid-scFv antibody was administered 100 μmol/0.1 ml via the caudal vein of each mouse. Twenty-four hours after administration of the Cupid-scFv antibody, ^211At-psyche-BR was administered via the caudal vein of each mouse in an amount of 5.55 MBq, 3.70 MBq, 1.85 MBq, 1.11 MBq, or 0.37 MBq.
To a control group, a solvent for the ^211At-psyche-BR was administered (solvent group). A group to which only cupid was administered was defined as a Cupid group. The mice's general states were observed and recorded immediately after administration of the ^211At-psyche-BR and at 3 hours after the administration. Moreover, until Day 14, after administration of the ^211At-psyche-BR, observation of the general states and the measurement of the body weight was carried out every day. After Day 14 of the administration of the ^211At-psyche-BR, observation of the general states and the measurement of the body weight was carried out every other day. The tumor size was measured every other day after the treatment with the ^211At-psyche-BR. On Day 36, after the treatment with the ^211At-psyche-BR, observation of the general states, the measurement of the body weight, and the measurement of the tumor size were carried out, and the mice were then euthanized by collecting whole blood from the heart of each mouse under isoflurane anesthesia. Tumor tissues and major tissues/organs were excised from the mice, weighed, and immobilized with formalin.

[2] = system: human stomach cancer cells (MKN-45); test: Experiment 11: pharmacokinetics (6 h) of Cupid-scFv antibody (24 h before)+^211At-psyche-B in MKN-45 cancer-bearing mouse models; assay type: in vivo, mice (BALB/cSlc nu/nu); details: six hours after administration, tumor on Day 8 after transplantation
Method: The present experiment used human stomach cancer cells (MKN-45) expressing carcinoembryonic antigen (CEA). 9-week-old male immunodeficient mice (BALB/cSlc nu/nu) were used. MKN-45 cells (1×10^7/0.1 ml) were transplanted into the mice's subcutis on the right shoulder dorsal side to produce cancer-bearing mouse models. When the tumor volume became a predetermined size (on Day 8 after the transplantation), the Cupid-scFv antibody was administered 100 μmol/0.1 ml via the caudal vein of each mouse. Twenty-four hours after administration of the Cupid-scFv antibody, ^211At-psyche-B (about 0.30 MBq/100 ml) was administered via the caudal vein of each mouse. […] After that, the weights of blood, plasma, urine, tumor, and normal tissues/organs were measured, and the radioactivity thereof was then measured using a γ counter. The amounts of the ^211At-psyche-B (radioactivity) accumulated in the blood, plasma, urine, tumor, and normal tissues/organs were calculated. […] Regarding accumulation of the ^211At-psyche-B in the thyroid gland, since the weight of the thyroid gland could not be precisely measured, it was shown that the rate (% ID) of the ^211At-psyche-B accumulated in the thyroid gland in the administered ^211At-psyche-B.

| Compound | general states and body weight changes ([1]; 0.37 MBq) | tumor growth compared with the control group ([1]; 0.37 MBq, until Day 10) | general states and body weight changes ([1]; 1.11 MBq) | tumor growth compared with the control group ([1]; 1.11 MBq, until Day 10) | tumor growth compared with the control group ([1]; 1.85, 1.11 and 0.37 MBq, after Day 10) | tumor growth compared with the control group ([1]; 1.85 MBq, until Day 10) | general states and body weight ([1]; 3.70 MBq) | general states and body weight ([1]; 5.55 MBq) | Accumulation in the tumor [2] |
| --- | --- | --- | --- | --- | --- | --- | --- | --- | --- |
| N=C1N[C@H]2[C@H](CS[C@H]2CCCCNC(=O)CCCCCC(=O)Nc2cc(NC(=O)CCCCCC(=O)NCCCC[C@@H]3SC[C@@H]4NC(=N)N[C@@H]43)cc(C(=O)NCCOCCOCCNC(=O)c3cccc([211At])c3)c2)N1 [^211At-psyche-BR] | almost the same levels as in the control group | tumor growth was suppressed | almost the same levels as in the control group | tumor growth was suppressed | the tumor growth was suppressed in an amount-dependent manner | tumor growth was suppressed | general states and body weight reduction became severe | general states and body weight reduction became severe | – |
| N=C1N[C@H]2[C@H](CS[C@H]2CCCCC(=O)NCCCCCC(=O)Nc2cc(NC(=O)CCCCCNC(=O)CCCC[C@@H]3SC[C@@H]4NC(=N)N[C@@H]43)cc(C(=O)NCCOCCOCCNC(=O)c3cccc([211At])c3)c2)N1 [^211At-psyche-B] | – | – | – | – | – | – | – | – | 25.8±1.5 % ID/g |
